Assay results as given in patent publication US12570607B2, “Compound as cyclin-dependent kinase 9 inhibitor and use thereof” (CSPC Zhongqi Pharmaceutical Technology (Shijiazhuang) Co., …, priority 2019, dated 2026).

Each compound was assayed on MV4;11 cells (assay: In vitro MV4;11 cell proliferation inhibition (MTT method)). Settings: Homo sapiens.
Type: cell-based
Source text: The in vitro inhibitory effect of the synthesized compounds on cell proliferation was investigated.
The trade name of MTT was thiazole blue, which was a tetrazolium salt of a dye that could accept hydrogen atoms. […] Dimethyl sulfoxide could dissolve blue-purple complexes in cells, and its light absorption value could be measured at 490-550 nm wavelength with an enzyme-linked immunosorbent detector, which could indirectly reflect the number of cells. Within a certain range of the cell number, the amount of MTT crystals formed was proportional to the number of cells. The drug to be tested was successively diluted to different concentrations and added to a 96-well plate. The OD value was determined after the drug acted for a certain time. The size of the OD value could reflect the number of living cells, and its IC50 value was calculated with SPSS19.0.
Suspension of cells: Cells were […] by centrifugation and counted. A certain density of cell suspension was formulated with a complete culture medium, blown evenly, inoculated on a 96-well plate, 100 μL per well, and then cultured in a CO2 incubator.
An appropriate amount of the drug was added to a calculated amount of DMSO and dissolved. The resulting mixture was dispensed and stored at −20° C. The formulation concentration was 10 mM.
The stock solution of the compound having a concentration of 10 mM was diluted into different concentrations (8 concentrations) of solutions of the compound in DMSO (3-fold dilution, 20×final concentration). Each concentration of solutions (10 μL) of the compound in DMSO was respectively diluted with cell culture media (90 μL) to formulate working solutions (2×final concentration). Each concentration of working solutions (100 μL) of the compound was added to the 96-well plate inoculated with cells (1×final concentration, the highest final concentration is 1000 nM). The resulting plate continued to be cultured in a CO2 incubator.
The 96-well plate was taken out, and the density of cells was observed under a microscope. The test was performed with the MTT method.
MTT method: 20 μL of MTT was added to each well; the plate was cultured for about 4 hours in the incubator; the liquid in the well was discarded; 150 μL of DMSO was added into each well; the plate was placed in a shaker and shaken for 5-10 minutes, and the test was performed with a microplate reader at a wavelength of 550 nm. 7. Data analysis: IC50 value of the drug was calculated with SPSS19.0 statistical software.
Work on C#CC(=O)N[C@@H]1CCC[C@H](C(=O)Nc2cc(-c3ccc(F)cc3OC)c(F)cn2)C1 [Compound 65] yielded an IC50 of 6 nM.
COc1cc(F)ccc1-c1cc(NC(=O)[C@H]2CCC[C@@H](NC(=O)C3CC3)C2)ncc1F [Compound 62] showed an IC50 of 6 nM.
In the case of COc1cc(F)ccc1-c1cc(NC(=O)[C@H]2CCC[C@@H](NC(=O)C3(C#N)CCN(C)CC3)C2)ncc1F [Compound 82], the IC50 is reported as 21 nM.
In the case of COc1cc(F)ccc1-c1cc(NC(=O)[C@H]2CCC[C@@H](NC(=O)C3(C)CC3)C2)ncc1F [Compound 53], the IC50 is reported as 10 nM.
COc1cc(F)ccc1-c1cc(NC(=O)[C@H]2CCC[C@@H](NC(=O)N(C)C)C2)ncc1F [Compound 38] gave an IC50 of 10 nM.
For CC(=O)N[C@@H]1CCC[C@H](C(=O)Nc2cc(-c3ccnc4[nH]ccc34)c(F)cn2)C1 [Compound 23], the IC50 was 23 nM.
Compound COc1cc(F)ccc1-c1cc(NC(=O)[C@H]2CCC[C@@H](NC(=O)C3COC3)C2)ncc1F [Compound 52] has an IC50 of 8 nM.
COc1cc(F)ccc1-c1cc(NC(=O)[C@H]2CCC[C@@H](NC(=O)C(=O)C3CC3)C2)ncc1F [Compound 63] showed an IC50 of 96 nM.
In the case of COc1cc(F)ccc1-c1cc(NC(=O)[C@H]2CCC[C@@H](NC(=O)C(C)(C)O)C2)ncc1F [Compound 83], the IC50 is reported as 14 nM.
COc1cc(F)ccc1-c1cc(NC(=O)[C@H]2CCC[C@@H](NC(=O)CC#N)C2)ncc1F [Compound 32] was tested, and the IC50 was 11 nM.
In the case of COc1cc(F)ccc1-c1cc(NC(=O)[C@H]2CCC[C@@H](NC(=O)C3(C#N)CCOCC3)C2)ncc1F [Compound 35], the IC50 is reported as 32 nM.
CC(=O)N[C@@H]1CCC[C@H](C(=O)Nc2cc(-c3ccc(F)nc3F)c(F)cn2)C1 [Compound 20] gave an IC50 of 67 nM.
COc1cc(F)ccc1-c1cc(NC(=O)[C@H]2CCC[C@@H](NC(=O)CCO)C2)ncc1F [Compound 50] was tested, and the IC50 was 37 nM.
Compound CC(=O)N[C@@H]1CCC[C@H](C(=O)Nc2cc(-c3cccc4ccoc34)c(F)cn2)C1 [Compound 19] has an IC50 of 26 nM.
COc1cc(F)ccc1-c1cc(NC(=O)[C@H]2CCC[C@@H](NC(=O)C3(C#N)CCC3)C2)ncc1F [Compound 34] was tested, and the IC50 was 21 nM.
CCOCC(=O)N[C@@H]1CCC[C@H](C(=O)Nc2cc(-c3ccc(F)cc3OC)c(F)cn2)C1 [Compound 46] showed an IC50 of 17 nM.
CC(=O)N[C@@H]1CCC[C@H](C(=O)Nc2cc(-c3ccc(F)cc3OC(C)C)c(F)cn2)C1 [Compound 8] gave an IC50 of 45 nM.
Compound COc1cc(F)ccc1-c1cc(NC(=O)[C@H]2CCC[C@@H](NC(=O)[C@H](CC(C)C)NC(C)=O)C2)ncc1F [Compound 58] has an IC50 of 86 nM.
COC(=O)N[C@@H]1CCC[C@H](C(=O)Nc2cc(-c3ccc(F)cc3OC)c(F)cn2)C1 [Compound 36] was tested, and the IC50 was 44 nM.
COc1cc(F)ccc1-c1cc(NC(=O)[C@H]2CCC[C@@H](NC(=O)Nc3cc(C)no3)C2)ncc1F [Compound 41] showed an IC50 of 45 nM.
COc1cc(F)ccc1-c1cc(NC(=O)[C@H]2CCC[C@@H](NC(=O)COC(C)=O)C2)ncc1F [Compound 47] gave an IC50 of 13 nM.
Compound COc1cc(F)c(F)cc1-c1cc(NC(=O)[C@H]2CCC[C@@H](NS(C)(=O)=O)C2)ncc1F [Compound 26] has an IC50 of 89 nM.
COc1ccccc1-c1cc(NC(=O)[C@H]2CCC[C@@H](NC(C)=O)C2)ncc1F [Compound 17] showed an IC50 of 25 nM.
In the case of COc1cc(O)ccc1-c1cc(NC(=O)[C@H]2CCC[C@@H](NC(C)=O)C2)ncc1F [Compound 15], the IC50 is reported as 9 nM.
In the case of COc1cc(F)ccc1-c1cc(NC(=O)C2CCCC(NC(C)=O)C2)ncc1F (stereo not drawn) [Compound 3], the IC50 is reported as 120 nM.
C=CC(=O)N[C@@H]1CCC[C@H](C(=O)Nc2cc(-c3ccc(F)cc3OC)c(F)cn2)C1 [Compound 64] showed an IC50 of 9 nM.
CNC(=O)N[C@@H]1CCC[C@H](C(=O)Nc2cc(-c3ccc(F)cc3OC)c(F)cn2)C1 [Compound 37] was tested, and the IC50 was 52 nM.
Compound COc1c(-c2cc(NC(=O)[C@H]3CCC[C@@H](NC(C)=O)C3)ncc2F)ccc(F)c1F [Compound 6] has an IC50 of 179 nM.
Work on COc1cc(F)ccc1-c1cc(NC(=O)[C@H]2CCC[C@@H](NC(=O)CN(C)C)C2)ncc1F [Compound 40] yielded an IC50 of 8 nM.
COc1cc(F)ccc1-c1cc(NC(=O)[C@H]2CCC[C@@H](NC(C)=O)C2)ncc1Cl [Compound 71] showed an IC50 of 16 nM.
With COc1cc(F)ccc1-c1cc(NC(=O)[C@H]2CCC[C@@H](NC(=O)[C@H](C)O)C2)ncc1F [Compound 48] the IC50 was 26 nM.
Work on COc1cc(F)ccc1-c1cc(NC(=O)[C@H]2CCC[C@@H](NC(=O)[C@@H](CC(C)C)NC(C)=O)C2)ncc1F [Compound 59] yielded an IC50 of 6 nM.
CC(=O)N[C@@H]1CCC[C@H](C(=O)Nc2cc(-c3cccc4[nH]ccc34)c(F)cn2)C1 [Compound 22] was tested, and the IC50 was 36 nM.
In the case of COc1cc(F)ccc1-c1cc(NC(=O)[C@H]2CCC[C@@H](NC(=O)CS)C2)ncc1F [Compound 81], the IC50 is reported as 67 nM.
For COc1cc(F)ccc1-c1cc(NC(=O)[C@H]2CCC[C@@H](NC(=O)CNC(C)=O)C2)ncc1F [Compound 57], the IC50 was 100 nM.
COc1cc(F)ccc1-c1cc(NC(=O)[C@H]2CCC[C@@H](NC(=O)C3(O)CC3)C2)ncc1F [Compound 51] was tested, and the IC50 was 13 nM.
In the case of COc1cc(F)ccc1-c1cc(NC(=O)[C@H]2CCC[C@@H](NC(=O)C3(C(F)(F)F)CC3)C2)ncc1F [Compound 55], the IC50 is reported as 14 nM.
Compound COc1cc(F)ccc1-c1cc(NC(=O)[C@H]2CCC[C@@H](NC(=O)[C@@H](C)O)C2)ncc1F [Compound 49] has an IC50 of 72 nM.
COc1cc(F)ccc1-c1cc(NC(=O)N2CCC[C@@H](NC(C)=O)C2)ncc1F [Compound 70] showed an IC50 of 259 nM.
COc1cc(F)ccc1-c1cc(NC(=O)[C@H]2CCC[C@@H](NC(=O)C3CCN(C)CC3)C2)ncc1F [Compound 60] gave an IC50 of 12 nM.
COc1cc(F)ccc1-c1cc(NC(=O)[C@H]2CCC[C@@H](NC(=O)C3(F)CC3)C2)ncc1F [Compound 54] was tested, and the IC50 was 12 nM.
Compound COc1cc(F)ccc1-c1cc(NC(=O)[C@H]2CCC[C@@H](NS(C)(=O)=O)C2)ncc1F [Compound 25] has an IC50 of 34 nM.
COc1cc(F)ccc1-c1cc(NC(=O)[C@H]2CCC[C@@H](Nc3nccs3)C2)ncc1F [Compound 69] showed an IC50 of 28 nM.
Work on COc1cc(F)ccc1-c1cc(NC(=O)[C@H]2CCC[C@@H](NC(=O)c3ccccn3)C2)ncc1F [Compound 43] yielded an IC50 of 22 nM.
COc1cc(F)ccc1-c1cc(NC(=O)[C@H]2CCC[C@@H](NC(=O)C3(C#N)CN(C)C3)C2)ncc1F [Compound 77] showed an IC50 of 21 nM.
CC(=O)N[C@@H]1CCC[C@H](C(=O)Nc2cc(-c3ccnc4c3ccn4C)c(F)cn2)C1 [Compound 24] showed an IC50 of 119 nM.
COc1cc(F)ccc1-c1cc(NC(=O)[C@H]2CCC[C@@H](NC(=O)/C=C/CN(C)C)C2)ncc1F [Compound 66] was tested, and the IC50 was 34 nM.
In the case of COc1cc(F)ccc1-c1cc(NC(=O)[C@H]2CCC[C@@H](NC(=O)C(F)(F)F)C2)ncc1F [Compound 42], the IC50 is reported as 17 nM.
COc1cc(F)ccc1-c1cc(NC(=O)[C@H]2CCC[C@@H](NC(=O)CC3CC3)C2)ncc1F [Compound 61] was tested, and the IC50 was 48 nM.
Work on COc1cc(F)ccc1-c1cc(NC(=O)[C@H]2CCC[C@@H](NC(=O)CN)C2)ncc1F [Compound 56] yielded an IC50 of 20 nM.

Each compound was assayed against hERG channel (Homo sapiens (Human), UniProt Q12809) (assay: In vitro hERG inhibitory activity, whole-cell patch-clamp on CHO-K1 cell line stably expressing the hERG channel). Settings: not given.
Sequence of hERG channel (Q12809 whole entry): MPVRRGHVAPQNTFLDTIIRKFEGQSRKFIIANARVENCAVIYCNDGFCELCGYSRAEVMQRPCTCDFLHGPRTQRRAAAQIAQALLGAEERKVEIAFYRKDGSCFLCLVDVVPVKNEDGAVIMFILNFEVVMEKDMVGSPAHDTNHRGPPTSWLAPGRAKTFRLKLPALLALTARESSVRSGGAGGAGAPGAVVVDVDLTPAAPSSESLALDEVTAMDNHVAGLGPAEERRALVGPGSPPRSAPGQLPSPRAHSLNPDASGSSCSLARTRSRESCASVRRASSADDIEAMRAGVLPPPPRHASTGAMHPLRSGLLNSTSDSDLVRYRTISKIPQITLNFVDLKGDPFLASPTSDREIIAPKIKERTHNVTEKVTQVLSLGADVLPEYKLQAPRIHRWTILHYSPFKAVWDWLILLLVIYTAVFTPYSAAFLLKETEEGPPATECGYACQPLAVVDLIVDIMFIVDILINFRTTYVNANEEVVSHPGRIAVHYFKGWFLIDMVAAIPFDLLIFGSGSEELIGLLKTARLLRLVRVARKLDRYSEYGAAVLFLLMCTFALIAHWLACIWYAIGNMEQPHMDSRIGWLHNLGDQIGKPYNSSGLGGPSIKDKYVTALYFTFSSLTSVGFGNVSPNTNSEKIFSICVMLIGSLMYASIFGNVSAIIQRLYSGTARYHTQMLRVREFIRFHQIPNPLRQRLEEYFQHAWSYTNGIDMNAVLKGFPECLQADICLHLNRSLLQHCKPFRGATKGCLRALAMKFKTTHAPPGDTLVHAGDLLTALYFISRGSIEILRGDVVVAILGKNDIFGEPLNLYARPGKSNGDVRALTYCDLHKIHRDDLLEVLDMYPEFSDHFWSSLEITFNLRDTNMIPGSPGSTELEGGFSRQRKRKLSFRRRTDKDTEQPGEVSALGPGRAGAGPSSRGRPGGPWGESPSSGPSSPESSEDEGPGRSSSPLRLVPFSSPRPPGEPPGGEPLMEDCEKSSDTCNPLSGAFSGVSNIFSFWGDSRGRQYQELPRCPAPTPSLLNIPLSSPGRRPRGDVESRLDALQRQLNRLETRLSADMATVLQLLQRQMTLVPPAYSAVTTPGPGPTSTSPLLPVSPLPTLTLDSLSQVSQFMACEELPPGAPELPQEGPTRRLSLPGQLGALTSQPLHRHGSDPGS
Source text: Rapid delayed rectifier current (IKr) was mainly mediated by the hERG ion channel and involved in human cardiomyocyte repolarization. Inhibition of IKr was the leading cause of the clinical QT interval prolongation syndrome, even acute cardiac dysrhythmia, and even sudden death. By utilizing a whole-cell patch-clamp technology, the blocking effect of a compound on the hERG channel was detected on a CHO-K1 cell line stably expressing the hERG channel, and the half inhibition concentration IC50 of the compound was determined. It was used as a part of the comprehensive cardiac safety assessment, and it was initially evaluated in the safety in vitro screen for cardiotoxicity.
This assay included the following aspects: • The hERG current was recorded on the CHO-K1 cell line stably expressing the hERG channel by utilizing the manual patch-clamp technology; • The inhibition rate at each concentration was calculated according to the hERG tail current; • The measurement was performed at 5 concentrations for each compound to calculate the IC50 value; • 3 cells were tested at each concentration; • One positive control drug was provided.
The hERG current was recorded by utilizing a whole-cell patch-clamp technology. The cell suspension was added to a dish, and the dish was placed on the object stage of an upright microscope. After adhesion of the cells, perfusion was performed with an extracellular fluid at a flow rate of […]. A glass microelectrode was pulled with a microelectrode puller via a two-step process and the pipette rip resistance was between 2-5 MΩ. After the whole-cell record was set up, the clamp potential was held at −80 mV. The cells were depolarized to +60 mV by applying a voltage stimulus and then repolarized to −50 mV to elicit the hERG tail current. All recordation was conducted after the current became stable. The extracellular perfusion administration was started from the lowest concentration, staying for 5-10 min at each concentration until the current was stable, and then conducted with the next concentration.
Compound COc1cc(F)ccc1-c1cc(NC(=O)[C@H]2CCC[C@@H](NC(=O)CC#N)C2)ncc1F [Compound 32] has an IC50 greater than 30000 nM.
Compound CC(=O)N[C@@H]1CCC[C@H](C(=O)Nc2cc(-c3cccc4ccoc34)c(F)cn2)C1 [Compound 19] has an IC50 greater than 30000 nM.
With CC(=O)N[C@@H]1CCC[C@H](C(=O)Nc2cc(-c3ccc(F)cc3OC(C)C)c(F)cn2)C1 [Compound 8] the IC50 was greater than 30000 nM.
COC(=O)N[C@@H]1CCC[C@H](C(=O)Nc2cc(-c3ccc(F)cc3OC)c(F)cn2)C1 [Compound 36] showed an IC50 greater than 30000 nM.
Work on COc1ccccc1-c1cc(NC(=O)[C@H]2CCC[C@@H](NC(C)=O)C2)ncc1F [Compound 17] yielded an IC50 greater than 30000 nM.
COc1cc(F)ccc1-c1cc(NC(=O)C2CCCC(NC(C)=O)C2)ncc1F (stereo not drawn) [Compound 3] was tested, and the IC50 was greater than 30000 nM.
With CNC(=O)N[C@@H]1CCC[C@H](C(=O)Nc2cc(-c3ccc(F)cc3OC)c(F)cn2)C1 [Compound 37] the IC50 was greater than 30000 nM.
With COc1cc(F)ccc1-c1cc(NC(=O)[C@H]2CCC[C@@H](NC(=O)[C@H](C)O)C2)ncc1F [Compound 48] the IC50 was greater than 30000 nM.
COc1cc(F)ccc1-c1cc(NC(=O)[C@H]2CCC[C@@H](NS(C)(=O)=O)C2)ncc1F [Compound 25] was tested, and the IC50 was greater than 30000 nM.
COc1cc(F)ccc1-c1cc(NC(=O)[C@H]2CCC[C@@H](NC(=O)c3ccccn3)C2)ncc1F [Compound 43] showed an IC50 greater than 30000 nM.
